Legend:
[1] = system: patients diagnosed with primary osteoporosis; assay: Lumbar spine bone mineral density by DXA, Working Example 1 (5 or 100 units once a week); format: in vivo, human; conditions: low-risk patients, only one patient
Method: (§1) Both the 5 and 100 unit groups were administered two tablets of a calcium agent (containing 500 mg of precipitated calcium carbonate [200 mg as calcium] per tablet) once a day.
(§2) The osteoporosis patients were classified as condition shown in Table 1 based on the bone fracture risk factors present, as in Non-patent Reference 13, and compared. High-risk patients were defined as having all three factors involving age, prevalent vertebral fractures, and bone density or bone atrophy; low-risk patients were defined as other than the above.

[2] = system: patients diagnosed with primary osteoporosis; assay: New vertebral fractures by x-ray (method of Genant), Working Example 1; format: in vivo, human; conditions: for Incidence (%) / No. of fractures / No. with fractures: new vertebral fractures every 26 weeks; for No. of vertebral fractures / No. with fractures (persons): new vertebral fractures
Method: as §1, §2

[3] = system: high-risk patients diagnosed with primary osteoporosis; assay: Worsening vertebral fractures, Working Example 2; format: in vivo, human; conditions: FAS, 200 units once a week
Excerpt: The vertebral fractures in the present invention also include both new fractures and worsening fractures. […] New and worsening [fractures] can be classified by the grade increase pattern according to the criteria of Genant. Concretely speaking, a fracture is diagnosed as a new fracture when a change is found from grade 0 to grade 1, 2, or 3. It can be regarded as a worsening fracture when a change is found from grade 1 to grade 2 or 3 or from grade 2 to grade 3. The vertebral height was measured according to the method of Inoue et al. (Non-patent reference 35) and the method of Hayashi et al. (Non-patent Reference 36) to accurately assess the changes in grade.
The incidence of bone fractures was checked by frontal and lateral x-rays of the fourth thoracic to the fourth lumbar spine taken at the start and every 24 weeks thereafter.

[4] = system: high-risk patients diagnosed with primary osteoporosis; assay: Femur (neck, proximal) bone density by DXA, Working Example 2; format: in vivo, human; conditions: 200 units once a week; for Change in bone density (%): patients taking glucocorticoid
Method: For the bone density of the femur, only the left side of the proximal part of the femur, rotated 20°, was measured at the start and every 24 weeks thereafter using dual-energy x-ray absorptiometry (DXA).

[5] = in vivo
[6] = high-risk patients, 5 units once a week, After 26 W
[7] = high-risk patients, 5 units once a week, After 52 W
[8] = high-risk patients, 5 units once a week, After 78 W
[9] = high-risk patients, 5 units once a week, After 104 W
[10] = high-risk patients, 5 units once a week, After 130 W
[11] = high-risk patients, 100 units once a week, After 26 W
[12] = high-risk patients, 100 units once a week, After 52 W
[13] = high-risk patients, 100 units once a week, After 78 W
[14] = high-risk patients, 100 units once a week, After 104 W
[15] = high-risk patients, 100 units once a week, After 130 W
[16] = low-risk patients, 5 units once a week, After 26 W
[17] = low-risk patients, 5 units once a week, After 52 W
[18] = low-risk patients, 5 units once a week, After 78 W
[19] = low-risk patients, 5 units once a week, After 104 W
[20] = low-risk patients, 5 units once a week, After 130 W
[21] = low-risk patients, 100 units once a week, After 26 W
[22] = low-risk patients, 100 units once a week, After 52 W
[23] = low-risk patients, 100 units once a week, After 78 W
[24] = low-risk patients, 100 units once a week, After 104 W
[25] = low-risk patients, 100 units once a week, After 130 W
[26] = high-risk patients, 5 units once a week
[27] = high-risk patients, 100 units once a week
[28] = low-risk patients, 5 units once a week
[29] = low-risk patients, 100 units once a week

## teriparatide acetate
[1]; After 26 W
  Lumbar spine bone mineral density (% change): 3.2%
[1]; After 52 W
  Lumbar spine bone mineral density (% change): 6.1%
[1]; After 78 W
  Lumbar spine bone mineral density (% change): 12.0%
[1]; Final check
  Lumbar spine bone mineral density (% change): 12.0%
[2]; [6]
  Incidence (%): 9.5%
  No. of fractures: 8
  No. with fractures: 6
[2]; [7]
  Incidence (%): 11.1%
  No. of fractures: 9
  No. with fractures: 7
[2]; [8]
  Incidence (%): 7.0%
  No. of fractures: 4
  No. with fractures: 4
[2]; [9]
  Incidence (%): 2.9%
  No. of fractures: 1
  No. with fractures: 1
[2]; [10]
  No. of fractures: 0
  No. with fractures: 0
[2]; [11]
  Incidence (%): 2.0%
  No. of fractures: 1
  No. with fractures: 1
[2]; [12]
  Incidence (%): 2.0%
  No. of fractures: 1
  No. with fractures: 1
[2]; [13]
  Incidence (%): 2.2%
  No. of fractures: 1
  No. with fractures: 1
[2]; [14]
  No. of fractures: 0
  No. with fractures: 0
[2]; [15]
  No. of fractures: 0
  No. with fractures: 0
[2]; [16]
  No. of fractures: 0
  No. with fractures: 0
[2]; [17]
  Incidence (%): 4.8%
  No. of fractures: 1
  No. with fractures: 1
[2]; [18]
  No. of fractures: 0
  No. with fractures: 0
[2]; [19]
  No. of fractures: 0
  No. with fractures: 0
[2]; [20]
  No. of fractures: 0
  No. with fractures: 0
[2]; [21]
  Incidence (%): 8.3%
  No. of fractures: 2
  No. with fractures: 1
[2]; [22]
  No. of fractures: 0
  No. with fractures: 0
[2]; [23]
  No. of fractures: 0
  No. with fractures: 0
[2]; [24]
  No. of fractures: 0
  No. with fractures: 0
[2]; [25]
  No. of fractures: 0
  No. with fractures: 0
[2]; [26]
  No. of vertebral fractures: 22
  No. with fractures (persons): 13 persons
[2]; [27]
  No. of vertebral fractures: 3
  No. with fractures (persons): 3 persons
[2]; [28]
  No. of vertebral fractures: 1
  No. with fractures (persons): 1 persons
[2]; [29]
  No. of vertebral fractures: 2
  No. with fractures (persons): 1 persons
[3]; incidence of worsening fractures
  Difference between test drug group and control group after 72 W (%): 1.8%
[3]; worsening fractures
  No. with fractures: 1
[4]; Neck of femur, 24 W, history of Alfacalcidol
  Percentage change in bone density (%): 1.64%
[4]; Neck of femur, 24 W, history of Calcitriol
  Percentage change in bone density (%): −0.60%
[4]; Neck of femur, 24 W, history of Calcium L-aspartate
  Percentage change in bone density (%): 1.44%
[4]; Neck of femur, 24 W, history of Calcium lactate
  Percentage change in bone density (%): 0.30%
[4]; Neck of femur, 24 W, history of Elcatonin
  Percentage change in bone density (%): 1.62%
[4]; Neck of femur, 24 W, history of Menatetrenone
  Percentage change in bone density (%): 0.72%
[4]; Neck of femur, 24 W, history of Raloxifene hydrochloride
  Percentage change in bone density (%): 0.21%
[4]; Neck of femur, 24 W
  Change in bone density (%): 2.53%
[4]; Neck of femur, 48 W, history of Alfacalcidol
  Percentage change in bone density (%): 0.85%
[4]; Neck of femur, 48 W, history of Calcitriol
  Percentage change in bone density (%): −4.03%
[4]; Neck of femur, 48 W, history of Calcium L-aspartate
  Percentage change in bone density (%): 1.88%
[4]; Neck of femur, 48 W, history of Calcium lactate
  Percentage change in bone density (%): −4.35%
[4]; Neck of femur, 48 W, history of Elcatonin
  Percentage change in bone density (%): 0.72%
[4]; Neck of femur, 48 W, history of Menatetrenone
  Percentage change in bone density (%): −3.18%
[4]; Neck of femur, 48 W, history of Raloxifene hydrochloride
  Percentage change in bone density (%): 1.03%
[4]; Neck of femur, 48 W
  Change in bone density (%): 2.79%
[4]; Neck of femur, 72 W, history of Alfacalcidol
  Percentage change in bone density (%): 2.19%
[4]; Neck of femur, 72 W, history of Calcitriol
  Percentage change in bone density (%): −3.53%
[4]; Neck of femur, 72 W, history of Calcium L-aspartate
  Percentage change in bone density (%): 4.17%
[4]; Neck of femur, 72 W, history of Calcium lactate
  Percentage change in bone density (%): −2.53%
[4]; Neck of femur, 72 W, history of Elcatonin
  Percentage change in bone density (%): 3.15%
[4]; Neck of femur, 72 W, history of Menatetrenone
  Percentage change in bone density (%): −0.78%
[4]; Neck of femur, 72 W, history of Raloxifene hydrochloride
  Percentage change in bone density (%): −0.51%
[4]; Neck of femur, 72 W
  Change in bone density (%): 2.44%
[4]; Proximal femur, 24 W, history of Alfacalcidol
  Percentage change in bone density (%): 2.77%
[4]; Proximal femur, 24 W, history of Calcitriol
  Percentage change in bone density (%): −1.40%
[4]; Proximal femur, 24 W, history of Calcium L-aspartate
  Percentage change in bone density (%): 1.76%
[4]; Proximal femur, 24 W, history of Calcium lactate
  Percentage change in bone density (%): 1.78%
[4]; Proximal femur, 24 W, history of Elcatonin
  Percentage change in bone density (%): 3.86%
[4]; Proximal femur, 24 W, history of Menatetrenone
  Percentage change in bone density (%): 0.60%
[4]; Proximal femur, 24 W, history of Raloxifene hydrochloride
  Percentage change in bone density (%): 2.44%
[4]; Proximal femur, 24 W
  Change in bone density (%): 2.46%
[4]; Proximal femur, 48 W, history of Alfacalcidol
  Percentage change in bone density (%): 2.31%
[4]; Proximal femur, 48 W, history of Calcitriol
  Percentage change in bone density (%): −1.05%
[4]; Proximal femur, 48 W, history of Calcium L-aspartate
  Percentage change in bone density (%): 2.28%
[4]; Proximal femur, 48 W, history of Calcium lactate
  Percentage change in bone density (%): −1.68%
[4]; Proximal femur, 48 W, history of Elcatonin
  Percentage change in bone density (%): 3.44%
[4]; Proximal femur, 48 W, history of Menatetrenone
  Percentage change in bone density (%): −0.56%
[4]; Proximal femur, 48 W, history of Raloxifene hydrochloride
  Percentage change in bone density (%): 2.26%
[4]; Proximal femur, 48 W
  Change in bone density (%): 3.39%
[4]; Proximal femur, 72 W, history of Alfacalcidol
  Percentage change in bone density (%): 2.31%
[4]; Proximal femur, 72 W, history of Calcitriol
  Percentage change in bone density (%): −0.04%
[4]; Proximal femur, 72 W, history of Calcium L-aspartate
  Percentage change in bone density (%): 3.69%
[4]; Proximal femur, 72 W, history of Calcium lactate
  Percentage change in bone density (%): −3.20%
[4]; Proximal femur, 72 W, history of Elcatonin
  Percentage change in bone density (%): 4.41%
[4]; Proximal femur, 72 W, history of Menatetrenone
  Percentage change in bone density (%): −1.40%
[4]; Proximal femur, 72 W, history of Raloxifene hydrochloride
  Percentage change in bone density (%): 3.03%
[4]; Proximal femur, 72 W
  Change in bone density (%): 3.06%
[5]
  Side effects: No, No. of cases: 27
  Side effects: Yes, No. of cases: 22

From patent US20140249084A1, “PTH-CONTAINING THERAPEUTIC/PROPHYLACTIC AGENT FOR OSTEOPOROSIS, CHARACTERIZED IN THAT PTH IS ADMINISTERED ONCE A WEEK IN A UNIT DOSE OF 100 TO 200 UNITS” (ASAHI KASEI PHARMA CORPORATION, priority 2009, published 2014)
